Measured values from patent publication US12329160B2, “Activated ferrate compositions” (THE TEXAS A & M UNIVERSITY SYSTEM, priority 2018, dated 2025).

Assays:
[1] = Oxidation of individual organic contaminants by Fe^VI with or without S2O3^2− in buffered ultrapure water, HPLC; format: physicochemical; details: for partial oxidation by Fe^VI without S2O3^2−: ratio 25:1 [Fe^VI]:[contaminants], Fe^VI 100.0 μM, pH 8.00, 30 seconds
Protocol: To test liquid ferrate solutions using second approach, batch experiments were conducted in a series of 100 mL glass jars under constant stirring rate (400 rpm) with a magnetic stirrer. Oxidation of each micropollutant or their mixtures by Fe^VI with or without S2O3^2− was initiated by mixing equal solution volumes of 10 mL, and the final reaction solutions were kept at 8.00±0.04.
(§1) The stock solutions of these contaminants (10.0 μM) were prepared in 10.0 mM Na2HPO4, and diluted using the same buffer solution before the removal experiments. […] Solutions of Fe^VI were prepared by adding K2FeO4 powders to 5.0 mM Na2HPO4/1.0 mM Na2B4O7.10H2O buffer solution. The concentrations of Fe^VI were quantitatively measured using an UV-visible spectrometer at a wavelength of 510 nm with a molar absorption coefficient of ε510 nm=1150 M^−1 cm^−1: The pH value of the contaminant solutions was adjusted to 7.50 via the addition of diluted H3PO4 before mixing with Fe^VI solution to achieve the desired reaction pH at 8.00±0.04. Methanol and phosphoric acid (85%) of high performance liquid chromatography (HPLC) grade were used in testing. 5,5-dimethyl-1-pyrroline-N-oxide (DMPO) was used as the spin trap reagent for identifying the possible reactive inorganic radicals (e.g., .OH and/or SO4.^−) in the oxidation system. All the other chemicals (e.g., hydroxylamine and permanganate) were provided from commercial sources and used without further purification. Two kinds of natural water samples were individually obtained from Brazos River (N 30°42′33″, E 96°28′5″, College Station, Texas) and Lake Bryan (N 30°33′30″, E 96°25′25″, Bryan, Texas). […] These real water samples were filtered through 0.45 μm hydrophilic PVDF membrane to remove the insoluble particles before spiking the contaminant mixtures (1.0 μM for each compound). 20.0 mM borate buffer was used to stabilize the solution pH of the real waters at 8.00±0.04. All the other solutions were prepared using the ultrapure water (resistivity >18 MΩ cm^−1).
(§2) Experiments were conducted in a series of 100 mL glass jars under constant stirring rate (400 rpm) with a magnetic stirrer. Oxidation of each contaminant or their mixtures by Fe^VI with or without S2O3^2− was initiated by mixing equal solution volumes of 10 mL, and the final reaction solutions were kept at 8.00±0.04. The concentration of Fe^VI was maintained at 100.0 μM, and the ratios of [S2O3^2−]:[Fe^VI] in the system were varied from 0 to 5.0 for aqueous removal of TMP (5.0 μM). […] After 30 seconds of oxidation, 20.0 μL NH2OH solution (1 M) was added to quench the reactions. Samples were transferred into high performance liquid chromatography (HPLC) vials, and were subsequently analyzed using the HPLC method. Similar experiments using TMP as a target contaminant were also performed by replacing Fe^VI with Mn^VII or chlorine under the same conditions.

[2] = Elimination of six pharmaceuticals by Fe^VI—S2O3^2− in river water (Brazos River); format: physicochemical; details: mixture 1.0 μM each, [S2O3^2−]:[Fe^VI] 0.125, Fe^VI 150.0 μM, pH 8.0, 30 seconds
Protocol: (§3) The contaminants are: carbamazepine (CMZ), diclofenac (DCF), enrofloxacin (ENR), propranolol (PPN), sulfadimethoxine (SMX), and trimethoprim (TMP). Experimental conditions: [Each contaminant]0 in mixture of samples=1.0 μM, [Fe^VI]0:[Total contaminants]=25:1, [S2O3^2−]0:[Fe^VI]0=0.125, [Fe^VI]0=150.0 μM, [S2O3^2−]0=18.75 μM, pH=8.00±0.05, reaction time=30 s).
The stock solutions of these contaminants (10.0 μM) were prepared in 10.0 mM Na2HPO4, and diluted using the same buffer solution before the removal experiments. Potassium ferrate (K2FeO4, purity >90%) was prepared using a wet chemical synthesis method. Solutions of Fe^VI were prepared by adding K2FeO4 powders to 5.0 mM Na2HPO4/1.0 mM Na2B4O7.10H2O buffer solution. The concentrations of Fe^VI were quantitatively measured using an UV-visible spectrometer at a wavelength of 510 nm with a molar absorption coefficient of ε510 nm=1150 M^−1 cm^−1: The pH value of the contaminant solutions was adjusted to 7.50 via the addition of diluted H3PO4 before mixing with Fe^VI solution to achieve the desired reaction pH at 8.00±0.04. […] No test contaminants were detected in these waters, and the basic physico-chemical parameters are pH, 8.36, UV254, 0.071 and UV400, 0.006 for river water; and pH, 9.43, UV254, 0.202, and UV400, 0.017 for lake water. […]

[3] = Elimination of six pharmaceuticals by Fe^VI—S2O3^2− in lake water (Lake Bryan); format: physicochemical; details: mixture 1.0 μM each, [S2O3^2−]:[Fe^VI] 0.125, Fe^VI 150.0 μM, pH 8.0, 30 seconds
Protocol: as §3, §1
as §2, with “conditions. All experiments were carried out at room temperature, and were at least in triplicates.” for “conditions.”
For the chromatographic separation of six contaminant mixtures (CMZ, DCF, ENR, PPN, SMX, and TMP), a solvent gradient method was used with flow rate of 0.8 mL/min. This method started with 35% B (0-7.5 min), followed by 35% B to 55% B (7.5-10.5 min), 55% B to 70% B (10.5-15.5 min), 70% B to 90% B (15.5-18.5 min), 90% B (18.5-25.0 min), 90% B to 35% B (25.0-25.5 min) and post-equilibration at 35% B (25.5-33.0 min).

[4] = pH 8.0; cited from earlier work

Row | Molecule | partial oxidation by Fe^VI without S2O3^2− [1] [%] | removal by Fe^VI—S2O3^2− in river water [2] | removal by Fe^VI—S2O3^2− in lake water [3] | oxidation of TMP by Fe^VI—S2O3^2− ([1]; molar ratio [S2O3^2−]:[Fe^VI] 0.125, TMP 5.0 μM, Fe(VI) 100.0 μM, pH 8.0, 30 seconds) [%] | elimination of TMP by Fe^VI—S2O3^2− ([1]; molar ratio [S2O3^2−]:[Fe^VI] 5.0, TMP 5.0 μM, Fe(VI) 100.0 μM, pH 8.0, 30 seconds) | oxidation of TMP by Fe^VI ([1]; without S2O3^2−, TMP 5.0 μM, Fe(VI) 100.0 μM, pH 8.0, quenched after 30 seconds, oxygenated) | k, reactivity of Fe^VI with DMSO [4]
1 | NC(=O)N1c2ccccc2C=Cc2ccccc21 [CMZ, Carbamazepine] | 25.11 | about 80% | about 50% | – | – | – | –
2 | O=C(O)Cc1ccccc1Nc1c(Cl)cccc1Cl [DCF, Diclofenac] | 20.85 | – | about 80% | – | – | – | –
3 | CCN1CCN(c2cc3c(cc2F)c(=O)c(C(=O)O)cn3C2CC2)CC1 [ENR, Enrofloxacin] | 41.02 | about 80% | about 50% | – | – | – | –
4 | CC(C)NCC(O)COc1cccc2ccccc12 (stereo not drawn) [PPN, Propranolol] | 32.46 | – | about 80% | – | – | – | –
5 | COc1cc(NS(=O)(=O)c2ccc(N)cc2)nc(OC)n1 [SMX, Sulfadimethoxine] | 47.27 | – | about 80% | – | – | – | –
6 | COc1cc(Cc2cnc(N)nc2N)cc(OC)c1OC [TMP, Trimethoprim] | 22.04 | – | about 80% | 100 | about 4% | about 16% | –
7 | Potassium ferrate [Fe^VI] | – | – | – | – | – | – | about 1 M^−1 s^−1
